Where a SMILES comes first, the peptide text is derived from it.
Test system: T. thermophilus cells
Assay: Mass spectrometry proteome analysis of peptide-treated T. thermophilus cells
Assay type: cell-based
Set-up: change in number of ribosomal proteins in comparison with the control: dose or concentration left out as unconfirmed
Details: for Ribosomal Proteins (number detected, 3 or more identified peptides) / All Proteins / total protein detected (number) / detection of ribosomal S1 protein: 24 h; for Ribosomal Proteins (number detected, 3 or more identified peptides): control 51 (with S1), homogenization by freezing-thawing; for All Proteins / total protein detected (number): control 386; for detection of ribosomal S1 protein: control with S1; for Number of proteins, keyword Aminotransferase / Number of proteins, keyword Aromatic amino acid biosynthesis / Number of proteins, keyword DNA replication / Number of proteins, keyword Endonuclease / Number of proteins, keyword Histidine biosynthesis / Number of proteins, keyword Nuclease / Number of proteins, keyword One-carbon metabolism / Number of proteins, keyword Potassium / Number of proteins, keyword Purine salvage / Number of proteins, keyword S-adenosyl-L-methionine / Number of proteins, keyword Serine/threonine-protein kinase / Number of proteins, keyword tRNA processing: 0 μg/ml: 1; for Number of proteins, keyword Isoleucine biosynthesis / Number of proteins, keyword Ribosome biogenesis: 0 μg/ml: 2; for Number of proteins, keyword Aminopeptidase / Number of proteins, keyword Phosphoprotein / Number of proteins, keyword Purine biosynthesis / Number of proteins, keyword Redox-active center: 0 μg/ml: 3; for Number of proteins, keyword Glyoxylate bypass / Number of proteins, keyword Threonine biosynthesis: 0 μg/ml: 4; for Number of proteins, keyword Methionine biosynthesis: 0 μg/ml: 5; for Number of proteins, keyword Allosteric enzyme: 0 μg/ml: 6; for Number of proteins, keyword Serine protease: 0 μg/ml: 7; for Number of proteins, keyword NADP: 0 μg/ml: 8; for Number of proteins, keyword Protease: 0 μg/ml: 16; for Number of proteins, keyword Aminoacyl-tRNA synthetase: 0 μg/ml: 20; for Number of proteins, keyword Magnesium: 0 μg/ml: 23; for Number of proteins, keyword Hydrolase: 0 μg/ml: 26; for Unique proteins (number): control 100
Description: T. thermophilus cells were incubated with or without peptides for 24 h. […] The cell extract was not allowed to heat above +10 °C. Cell debris and aggregates were collected by sedimentation using centrifugation in a 221.23 V20 rotor of a Z 36 HK centrifuge (Hermle Labortechnik GmbH, Wehingen, Germany) at 20,000× g 20 min at +4 °C. The supernatant was dried using a vacuum Concentrator 5301 (Eppendorf, Hamburg, Germany). The prepared lysate was dissolved in 100 μL of 9M urea to denature the total protein. Then, 20 μL of cell lysates was separated by electrophoretic in 12% SDS-PAGE. Protein fractions were divided on three equal parts, that every part was chop and treated with trypsin protease. Mass spectrometry analysis of every part was carried out independently. To purify the samples treated with trypsin, filtration was carried out through ZipTips (MilliporeSigma, Burlington, MA, USA). Protein hydrolyzates were concentrated on a pre-column Acclaim PepMap 100 (C18, 3 μm particle size, 100 Å pore size, 300 μm inner diameter × 5 mm length) and separated on an analytical column Acclaim PepMap RSLC (2 μm particle size, 100 Å pore size, 75 μm inner diameter × 150 mm length) (Thermo Scientific, Waltham, MA, USA) using nanoflow liquid chromatograph EASY nLC 1000 (Thermo Scientific, Waltham, MA, USA). A high-performance mass spectrometer an Orbitrap Elite (Thermo Scientific, Dreieich, Germany) was used as a detector. Panoramic spectra were recorded in the mass range m/z 300–2000 at resolution 60,000; ion fragmentation was performed in an HCD cell; the fragmentation spectra were recorded at resolution 15,000. Preliminary selection of identified peptides with a molecular mass (MM) >600 Da was carried out according to the evaluation criteria of the PEAKS Studio 7.5 program (Bioinformatics Solution Inc., Waterloo, ON N2L 6J2, Canada). The peptides with the threshold function value T = −10·logP > 15 were considered significant, where P is the probability that false identification will reach the same or better match score. The T value of >15 corresponds to the p criterion <0.03 [29]. The received fragmentation spectra were analyzed by web-server Identipy. Identification of proteins in the mass spectra of the total protein was carried out using the database of the reference T. thermophilus proteome (Uniprot, No. UP000217909). Proteome data every part was summarized. Subsequent analysis was conducted by using the statistics software R with packages UniProt.ws, tidyverse, ggplot2, splitstackshape, reshape, readr, RVenn, UpSetR (https://rdrr.io/bioc/UniProt.ws/; https://CRAN.R-project.org/package=readr; https://CRAN.R-project.org/package=splitstackshape; https://CRAN.R-project.org/package=readr; https://CRAN.R-project.org/package=RVen).
Annotation of the certain proteins by keywords of the Uniprot database allows us to evaluate the changes in protein composition in 10 categories: biological process, cellular component, variety of coding sequences, molecular function, and others. The number of keywords corresponds to the number of annotated proteins.

SMILES: CC[C@H](C)[C@H](NC(=O)[C@H](CCC(=O)O)NC(=O)[C@@H](NC(=O)[C@H](Cc1ccccc1)NC(=O)[C@@H](NC(=O)CNC(=O)[C@H](Cc1ccccc1)NC(=O)[C@H](CC(=O)O)NC(=O)[C@@H](NC(=O)[C@@H](NC(=O)CNC(=O)CN(C)C(=O)CNC(=O)CNC(=O)[C@H](CCCNC(=N)N)NC(=O)[C@H](CCCNC(=N)N)NC(=O)[C@H](CCCNC(=N)N)NC(=O)[C@H](CCC(N)=O)NC(=O)[C@H](CCCNC(=N)N)NC(=O)[C@H](CCCNC(=N)N)NC(=O)[C@H](CCCCN)NC(=O)[C@H](CCCCN)NC(=O)[C@@H](N)CCCNC(=N)N)C(C)C)[C@@H](C)O)C(C)C)C(C)C)C(=O)O [R23I] (HELM PEPTIDE1{R.K.K.R.R.Q.R.R.R.G.G.[Sar].G.V.T.D.F.G.V.F.V.E.I}$$$$V2.0; N-terminus and C-terminus assumed)
- change in number of ribosomal proteins in comparison with the control (R23I): more than two-fold decrease
- less numbers of proteins detected relative to the control (R23I 20 μg/mL): 40%
- Common proteins for cells in control and treated cells (number) (R23I 20 μg/ml): 20
- Ribosomal Proteins (number detected, 3 or more identified peptides) (R23I 20 μg/ml): 42
- All Proteins / total protein detected (number) (R23I 20 μg/ml): 232
- detection of ribosomal S1 protein (R23I 20 μg/ml): 42 (without S1)
- Number of proteins, keyword Aminotransferase (R23I 20 μg/ml): 0
- Number of proteins, keyword Aromatic amino acid biosynthesis (R23I 20 μg/ml): 0
- Number of proteins, keyword DNA replication (R23I 20 μg/ml): 0
- Number of proteins, keyword Endonuclease (R23I 20 μg/ml): 0
- Number of proteins, keyword Histidine biosynthesis (R23I 20 μg/ml): 0
- Number of proteins, keyword Nuclease (R23I 20 μg/ml): 0
- Number of proteins, keyword One-carbon metabolism (R23I 20 μg/ml): 0
- Number of proteins, keyword Potassium (R23I 20 μg/ml): 0
- Number of proteins, keyword Purine salvage (R23I 20 μg/ml): 0
- Number of proteins, keyword S-adenosyl-L-methionine (R23I 20 μg/ml): 0
- Number of proteins, keyword Serine/threonine-protein kinase (R23I 20 μg/ml): 0
- Number of proteins, keyword tRNA processing (R23I 20 μg/ml): 0
- Number of proteins, keyword Isoleucine biosynthesis (R23I 20 μg/ml): 0
- Number of proteins, keyword Ribosome biogenesis (R23I 20 μg/ml): 0
- Number of proteins, keyword Aminopeptidase (R23I 20 μg/ml): 0
- Number of proteins, keyword Phosphoprotein (R23I 20 μg/ml): 1
- Number of proteins, keyword Purine biosynthesis (R23I 20 μg/ml): 1
- Number of proteins, keyword Redox-active center (R23I 20 μg/ml): 0
- Number of proteins, keyword Glyoxylate bypass (R23I 20 μg/ml): 1
- Number of proteins, keyword Threonine biosynthesis (R23I 20 μg/ml): 1
- Number of proteins, keyword Methionine biosynthesis (R23I 20 μg/ml): 1
- Number of proteins, keyword Allosteric enzyme (R23I 20 μg/ml): 1
- Number of proteins, keyword Serine protease (R23I 20 μg/ml): 1
- Number of proteins, keyword NADP (R23I 20 μg/ml): 2
- Number of proteins, keyword Protease (R23I 20 μg/ml): 5
- Number of proteins, keyword Aminoacyl-tRNA synthetase (R23I 20 μg/ml): 7
- Number of proteins, keyword Magnesium (R23I 20 μg/ml): 9
- Number of proteins, keyword Hydrolase (R23I 20 μg/ml): 9
- Unique proteins (number) (R23I 20 μg/ml): 11
- less numbers of proteins detected relative to the control (R23I 50 μg/mL): 48%
- ratio of proteins from treated cells to proteins from intact cells (R23I 50 μg/mL, 201 to 386 proteins): 0.52
- Common proteins for cells in control and treated cells (number) (R23I 50 μg/ml): 9
- Ribosomal Proteins (number detected, 3 or more identified peptides) (R23I 50 μg/ml): 39
- All Proteins / total protein detected (number) (R23I 50 μg/ml): 201
- detection of ribosomal S1 protein (R23I 50 μg/ml): 39 (without S1)
- Number of proteins, keyword Aminotransferase (R23I 50 μg/ml): 0
- Number of proteins, keyword Aromatic amino acid biosynthesis (R23I 50 μg/ml): 0
- Number of proteins, keyword DNA replication (R23I 50 μg/ml): 0
- Number of proteins, keyword Endonuclease (R23I 50 μg/ml): 0
- Number of proteins, keyword Histidine biosynthesis (R23I 50 μg/ml): 0
- Number of proteins, keyword Nuclease (R23I 50 μg/ml): 0
- Number of proteins, keyword One-carbon metabolism (R23I 50 μg/ml): 0
- Number of proteins, keyword Potassium (R23I 50 μg/ml): 0
- Number of proteins, keyword Purine salvage (R23I 50 μg/ml): 0
- Number of proteins, keyword S-adenosyl-L-methionine (R23I 50 μg/ml): 0
- Number of proteins, keyword Serine/threonine-protein kinase (R23I 50 μg/ml): 0
- Number of proteins, keyword tRNA processing (R23I 50 μg/ml): 1
- Number of proteins, keyword Isoleucine biosynthesis (R23I 50 μg/ml): 0
- Number of proteins, keyword Ribosome biogenesis (R23I 50 μg/ml): 0
- Number of proteins, keyword Aminopeptidase (R23I 50 μg/ml): 0
- Number of proteins, keyword Phosphoprotein (R23I 50 μg/ml): 2
- Number of proteins, keyword Purine biosynthesis (R23I 50 μg/ml): 1
- Number of proteins, keyword Redox-active center (R23I 50 μg/ml): 0
- Number of proteins, keyword Glyoxylate bypass (R23I 50 μg/ml): 1
- Number of proteins, keyword Threonine biosynthesis (R23I 50 μg/ml): 1
- Number of proteins, keyword Methionine biosynthesis (R23I 50 μg/ml): 1
- Number of proteins, keyword Allosteric enzyme (R23I 50 μg/ml): 1
- Number of proteins, keyword Serine protease (R23I 50 μg/ml): 2
- Number of proteins, keyword NADP (R23I 50 μg/ml): 2
- Number of proteins, keyword Protease (R23I 50 μg/ml): 5
- Number of proteins, keyword Aminoacyl-tRNA synthetase (R23I 50 μg/ml): 7
- Number of proteins, keyword Magnesium (R23I 50 μg/ml): 9
- Number of proteins, keyword Hydrolase (R23I 50 μg/ml): 8
- Unique proteins (number) (R23I 50 μg/ml): 2
- Common proteins for cells in control and treated cells (number) (R23I 100 μg/ml): 69
- Ribosomal Proteins (number detected, 3 or more identified peptides) (R23I 100 μg/ml): 23
- All Proteins / total protein detected (number) (R23I 100 μg/ml): 395
- detection of ribosomal S1 protein (R23I 100 μg/ml): 23 (with S1)
- Number of proteins, keyword Aminotransferase (R23I 100 μg/ml): 1
- Number of proteins, keyword Aromatic amino acid biosynthesis (R23I 100 μg/ml): 1
- Number of proteins, keyword DNA replication (R23I 100 μg/ml): 2
- Number of proteins, keyword Endonuclease (R23I 100 μg/ml): 2
- Number of proteins, keyword Histidine biosynthesis (R23I 100 μg/ml): 1
- Number of proteins, keyword Nuclease (R23I 100 μg/ml): 2
- Number of proteins, keyword One-carbon metabolism (R23I 100 μg/ml): 1
- Number of proteins, keyword Potassium (R23I 100 μg/ml): 1
- Number of proteins, keyword Purine salvage (R23I 100 μg/ml): 0
- Number of proteins, keyword S-adenosyl-L-methionine (R23I 100 μg/ml): 1
- Number of proteins, keyword Serine/threonine-protein kinase (R23I 100 μg/ml): 0
- Number of proteins, keyword tRNA processing (R23I 100 μg/ml): 1
- Number of proteins, keyword Isoleucine biosynthesis (R23I 100 μg/ml): 1
- Number of proteins, keyword Ribosome biogenesis (R23I 100 μg/ml): 0
- Number of proteins, keyword Aminopeptidase (R23I 100 μg/ml): 0
- Number of proteins, keyword Phosphoprotein (R23I 100 μg/ml): 5
- Number of proteins, keyword Purine biosynthesis (R23I 100 μg/ml): 3
- Number of proteins, keyword Redox-active center (R23I 100 μg/ml): 3
- Number of proteins, keyword Glyoxylate bypass (R23I 100 μg/ml): 4
- Number of proteins, keyword Threonine biosynthesis (R23I 100 μg/ml): 2
- Number of proteins, keyword Methionine biosynthesis (R23I 100 μg/ml): 3
- Number of proteins, keyword Allosteric enzyme (R23I 100 μg/ml): 4
- Number of proteins, keyword Serine protease (R23I 100 μg/ml): 3
- Number of proteins, keyword NADP (R23I 100 μg/ml): 6
- Number of proteins, keyword Protease (R23I 100 μg/ml): 11
- Number of proteins, keyword Aminoacyl-tRNA synthetase (R23I 100 μg/ml): 19
- Number of proteins, keyword Magnesium (R23I 100 μg/ml): 33
- Number of proteins, keyword Hydrolase (R23I 100 μg/ml): 31
- Unique proteins (number) (R23I 100 μg/ml): 176

From publication PMC7504387, “Antimicrobial and Amyloidogenic Activity of Peptides Synthesized on the Basis of the Ribosomal S1 Protein from Thermus Thermophilus” (International Journal of Molecular Sciences, 2020)
